Active and inactive are the calls of the source. No cut-off for these calls is given here.
Columns and labels:
Staphylococcus aureus [1] = assay: Potentiation of berberin induced antibacterial activity against Staphylococcus aureus SA1199 assessed as berberin MIC at 201.4 uM (reference value: 238 microM); format: functional
Staphylococcus aureus [2] = assay: Antibacterial activity against Staphylococcus aureus SA1199 at 201.4 to 402.8 uM after 18 hrs by CLSI method; format: functional, organism-based
Staphylococcus aureus [3] = assay: Potentiation of berberin induced antibacterial activity against Staphylococcus aureus SA1199 assessed as berberin MIC at 200 uM (reference value: 238 microM); format: functional

Row | SMILES | MIC (Staphylococcus aureus [1]) [µM] | Activity (Staphylococcus aureus [2]) | MIC (Staphylococcus aureus [3]) [µM]
1 | COc1ccc(-c2oc3c(C)c(OC)c(C)c(OC)c3c(=O)c2O)cc1O | 179 | inactive | 
2 | O=C(/C=C/C=C/c1ccc2c(c1)OCO2)N1CCCCC1 [PIPERINE] |  |  | 119

— ChEMBL document CHEMBL4138144, “Biochemometrics to Identify Synergists and Additives from Botanical Medicines: A Case Study with Hydrastis canadensis (Goldenseal)” (J Nat Prod, 2018)
